We go through 20 compounds from patent publication US20190330189A1, “ANTIBACTERIAL COMPOUNDS” (Janssen Sciences Ireland UC, priority 2015, published 2019).

Data set [1] deals with Mycobacterium tuberculosis strain EH 4.0 (361.269). Nature of the data set: Test 4: MIC determination, resazurin fluorescence, strain EH 4.0. Format: cell-based. The note with it: for IC50: Mycobacterium tuberculosis, read-out: pIC50, Test 4, M. tuberculosis strain EH 4.0 (361.269) (converted); for pIC50: Test 4, M. tuberculosis strain EH 4.0 (361.269). The text has this:
TEST 4 (See Also Test 1 Above; in this Test a Different Strain of Mycobacterium tuberculosis Strain is Employed)
Appropriate solutions of experimental and reference compounds were made in 96 well plates with 7H9 medium. Samples of Mycobacterium tuberculosis strain EH 4.0 (361.269) were taken from cultures in stationary growth phase. These were first diluted to obtain an optical density of 0.3 at 600 nm wavelength and then diluted 1/100, resulting in an inoculum of approximately 5×10 exp5 colony forming units per well. Plates were incubated at 37° C. in plastic bags to prevent evaporation. After 7 days, resazurin was added to all wells.

Structures are written as SMILES.

The melting point is the temperature, or range, at which the solid turns liquid. Regarding `CCc1nc2ccc(Cl)cn2c1C(=O)NCc1ccc(N2CCC3(C2)CN(c2ccc(OC(F)(F)F)cc2)C3)cc1` [Compound 75], the melting point came to 183.86 °C. Moreover, the IC50 in data set [1] was 15.8 nM.

`CCc1nc2ccc(Cl)cn2c1C(=O)NCc1ccc(C2CC3(C2)CN(c2cccnc2)C3)cc1` [Compound 119] came in with a melting point of 147.85 °C. In addition, the IC50 in data set [1] was 631 nM.

For orientation: pIC50 means −log10 of the IC50, conventionally taken in molar units. A low value points to a large IC50. Take `Cc1nn2ccccc2c1C(=O)NCc1ccc(C2CC3(C2)CN(c2ccccc2)C3)cc1` [Compound 127]: the melting point came out at 201.15 °C. Besides, in data set [1], the IC50 was 126 nM and the pIC50 was 7.0.

Regarding `CCc1nc2ccc(Cl)cn2c1C(=O)NCC1CC2(C1)CN(c1ccc(OC(F)(F)F)cc1)C2` [Compound 164], the melting point worked out at 165.12 °C. Further, in data set [1], the IC50 is 7940 nM.

For `CCc1nc2ncc(Cl)cn2c1C(=O)NCc1ccc(C2CC3(C2)CN(c2cccnc2)C3)cc1` [Compound 122], the melting point stood at 161.23 °C. The IC50 in data set [1] is 794 nM.

In turn, `Cc1nc2sc(Cl)cn2c1C(=O)NCc1ccc(N2CC3(CC(=O)C3)C2)cc1` [Compound 129] registered a melting point of 188.46 °C. In data set [1], the IC50 was 398 nM and the pIC50 was determined as 6.5.

Turning to `CCc1nc2ccc(Cl)cn2c1C(=O)NCc1ccc(N2CC3(CC(c4ccccn4)C3)C2)cc1` [Compound 120], the melting point is 139.57 °C. For the same compound, the IC50 in data set [1] was 10000 nM.

Consider `CCc1nc2c(F)cccn2c1C(=O)NCc1ccc(C2CC3(C2)CN(c2ccc(OC(F)(F)F)cc2)C3)cc1` [Compound 157], for which the melting point came out at 144.55 °C. Besides, in data set [1], the IC50 is 7940 nM.

Consider `CCc1nc2ncc(Cl)cn2c1C(=O)NCc1ccc(C2CC3(C2)CN(C(=O)C(F)(F)F)C3)cc1` [Compound 128], for which the melting point worked out at 160.59 °C. For the same compound, the IC50 in data set [1] is 31.6 nM.

`Cc1nn2ccccc2c1C(=O)NCc1ccc(N2CC3(C2)CN(c2ccc(OC(F)(F)F)cc2)C3)cc1` [Compound 142] showed a melting point of 193.19 °C. Also, the IC50 in data set [1] is 126 nM.

`CCc1nn2ccccc2c1C(=O)NCC1CC2(C1)CN(c1ccc(OC(F)(F)F)cc1)C2` [Compound 165]: the melting point amounted to 150.69 °C. For the same compound, in data set [1], the IC50 is 7940 nM.

In turn, `CCc1nc2ccc(Cl)cn2c1C(=O)NCc1ccc(N2CC3(C2)CC2(C3)OCCCO2)cc1` [Compound 95] gave a melting point of 154.23 °C. Also, the IC50 in data set [1] was 158 nM.

In turn, `Cc1nn2ccccc2c1C(=O)NCc1ccc(N2CC3(CN(F)C3)C2)cc1` [Compound 143] registered a melting point of 130.31 °C. In data set [1], the IC50 was 398 nM.

On to `CCc1nc2ncc(Cl)cn2c1C(=O)NCc1ccc(N2CC3(C2)CC(F)(F)C3)cc1` [Compound 148], for which the melting point is 158.14 °C. Moreover, the IC50 in data set [1] was 15.8 nM.

Turning to `CCc1nc2ncc(Cl)cn2c1C(=O)NCc1ccc(N2CC3(CC(c4ccc(OC)c(F)c4)C3)C2)cc1` [Compound 88], the melting point is 156.54 °C. The IC50 in data set [1] was 251 nM.

Take `CCc1nc2sc(C)cn2c1C(=O)NCc1ccc(N2CC3(CC(c4ccc(OC(F)(F)F)cc4)C3)C2)cc1` [Compound 83]: the melting point came out at 108.84 °C. For the same compound, the IC50 in data set [1] is 100 nM.

`CCc1nn2ccccc2c1C(=O)NCc1ccc(N2CC3(C2)CN(c2ccc(OC(F)(F)F)cc2)C3)cc1` [Compound 144] gave a melting point of 135.8 °C. Further, the IC50 in data set [1] is 79.4 nM.

Regarding `CCc1nc2ccc(Cl)cn2c1C(=O)NCc1ccc(N2CC3(CCC3)C2)cc1` [Compound 163], the melting point came to 142.39 °C. The IC50 in data set [1] is 7940 nM.

On to `CCc1nc2ncc(Cl)cn2c1C(=O)NCc1ccc(C2CC3(C2)CN(c2cncnc2)C3)cc1` [Compound 134], for which the melting point came to 188.07 °C. For the same compound, the IC50 in data set [1] was 6.31 nM.

On to `CCc1nc2ncc(Cl)cn2c1C(=O)NCc1ccc(N2CC3(C2)CN(c2cccnc2)C3)cc1` [Compound 121], for which the melting point amounted to 241.08 °C. Also, the IC50 in data set [1] was 2510 nM.
